Experimental data from the supplement of paper PMC10307832.

Experiments:
Experiment in all cases: relative viability (nuclei count vs DMSO), 5 days (fraction); higher = more cells survive
NCI-H2342 = tested on: NCI-H2342
In short: (§1)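 Dosing by pin tool came one day after lung cancer cell lines were seeded in 1536-well plates, using either one drug or a fixed anchor-drug dose plus five library-drug doses (not always all listed) in √10 steps. After 5 days, nuclei were counted on 4× images. Relative viability is treated-well nuclei count divided by vehicle-well nuclei count, and values are medians of duplicate plates.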

NCI-H2023 = tested on: NCI-H2023
In short: as §1

NCI-H1734 = tested on: NCI-H1734
In short: as §1

NCI-H1563 = tested on: NCI-H1563
In short: as §1

NCI-H441 = tested on: NCI-H441
In short: as §1

NCI-H1651 = tested on: NCI-H1651
In short: as §1

COR-L23 = tested on: COR-L23
In short: as §1

NCI-H1355 = tested on: NCI-H1355
In short: as §1

NCI-H1793 = tested on: NCI-H1793
In short: as §1

CAL-12T = tested on: CAL-12T
In short: as §1

NCI-H358 = tested on: NCI-H358
In short: as §1

## Cc1sc2c(c1C)C(c1ccc(Cl)cc1)=N[C@@H](CC(=O)OC(C)(C)C)c1nnc(C)n1-2 [JQ1] + CCNC(=O)c1noc(-c2cc(C(C)C)c(O)cc2O)c1-c1ccc(CN2CCOCC2)cc1 [Luminespib] (partner 0.01 µM)
NCI-H2342; first compound 0.4 µM
  relative viability: 0.8
NCI-H2342; first compound 1.265 µM
  relative viability: 0.739
NCI-H2342; first compound 4 µM
  relative viability: 0.539
NCI-H2023; first compound 0.04 µM
  relative viability: 0.731
NCI-H2023; first compound 0.1265 µM
  relative viability: 0.67
NCI-H2023; first compound 0.4 µM
  relative viability: 0.358
NCI-H2023; first compound 1.265 µM
  relative viability: 0.107
NCI-H2023; first compound 4 µM
  relative viability: 0.146
NCI-H1734; first compound 0.04 µM
  relative viability: 0.254
NCI-H1734; first compound 0.1265 µM
  relative viability: 0.165
NCI-H1734; first compound 0.4 µM
  relative viability: 0.158
NCI-H1734; first compound 1.265 µM
  relative viability: 0.124
NCI-H1734; first compound 4 µM
  relative viability: 0.173
NCI-H1563; first compound 0.04 µM
  relative viability: 0.565
NCI-H1563; first compound 0.1265 µM
  relative viability: 0.478
NCI-H1563; first compound 0.4 µM
  relative viability: 0.449
NCI-H1563; first compound 1.265 µM
  relative viability: 0.447
NCI-H1563; first compound 4 µM
  relative viability: 0.491
NCI-H441; first compound 0.04 µM
  relative viability: 0.37
NCI-H441; first compound 0.1265 µM
  relative viability: 0.501
NCI-H441; first compound 0.4 µM
  relative viability: 0.419
NCI-H441; first compound 1.265 µM
  relative viability: 0.253
NCI-H441; first compound 4 µM
  relative viability: 0.235
NCI-H1651; first compound 0.04 µM
  relative viability: 0.865
NCI-H1651; first compound 0.1265 µM
  relative viability: 0.997
NCI-H1651; first compound 0.4 µM
  relative viability: 0.768
NCI-H1651; first compound 1.265 µM
  relative viability: 0.369
NCI-H1651; first compound 4 µM
  relative viability: 0.375
COR-L23; first compound 0.04 µM
  relative viability: 0.649
COR-L23; first compound 0.1265 µM
  relative viability: 0.6
COR-L23; first compound 0.4 µM
  relative viability: 0.504
COR-L23; first compound 1.265 µM
  relative viability: 0.207
COR-L23; first compound 4 µM
  relative viability: 0.114
NCI-H1355; first compound 0.04 µM
  relative viability: 0.715
NCI-H1355; first compound 0.1265 µM
  relative viability: 0.715
NCI-H1355; first compound 0.4 µM
  relative viability: 0.453
NCI-H1355; first compound 1.265 µM
  relative viability: 0.359
NCI-H1355; first compound 4 µM
  relative viability: 0.339
NCI-H1793; first compound 0.04 µM
  relative viability: 0.155
NCI-H1793; first compound 0.1265 µM
  relative viability: 0.209
NCI-H1793; first compound 0.4 µM
  relative viability: 0.197
NCI-H1793; first compound 1.265 µM
  relative viability: 0.318
NCI-H1793; first compound 4 µM
  relative viability: 0.253
CAL-12T; first compound 0.04 µM
  relative viability: 0.364
CAL-12T; first compound 0.1265 µM
  relative viability: 0.184
CAL-12T; first compound 0.4 µM
  relative viability: 0.367
CAL-12T; first compound 1.265 µM
  relative viability: 0.134
CAL-12T; first compound 4 µM
  relative viability: 0.146
NCI-H358; first compound 0.04 µM
  relative viability: 0.305
NCI-H358; first compound 0.1265 µM
  relative viability: 0.398
NCI-H358; first compound 0.4 µM
  relative viability: 0.401
NCI-H358; first compound 1.265 µM
  relative viability: 0.385
NCI-H358; first compound 4 µM
  relative viability: 0.27
